Source: patent US6828320B2, “Heterocyclic compounds” (SmithKline Beecham Corporation, priority 1996, dated 2004)
Structures can show the parent of a compound that is named as a salt. Where two headings read alike, the source gives them in different places.

Assays:
[1] = biological target: T1, c-erbB-2 (baculovirus expressed, recombinant intracellular domain) (Homo sapiens, UniProt P04626); test: Substrate phosphorylation assay, c-erbB-2; format: biochemical
T1 construct: baculovirus expressed, recombinant constructs of the intracellular domains of c-erbB-2 and c-erbB-4; made in house
T1 sequence (P04626 676-1255 limits assumed): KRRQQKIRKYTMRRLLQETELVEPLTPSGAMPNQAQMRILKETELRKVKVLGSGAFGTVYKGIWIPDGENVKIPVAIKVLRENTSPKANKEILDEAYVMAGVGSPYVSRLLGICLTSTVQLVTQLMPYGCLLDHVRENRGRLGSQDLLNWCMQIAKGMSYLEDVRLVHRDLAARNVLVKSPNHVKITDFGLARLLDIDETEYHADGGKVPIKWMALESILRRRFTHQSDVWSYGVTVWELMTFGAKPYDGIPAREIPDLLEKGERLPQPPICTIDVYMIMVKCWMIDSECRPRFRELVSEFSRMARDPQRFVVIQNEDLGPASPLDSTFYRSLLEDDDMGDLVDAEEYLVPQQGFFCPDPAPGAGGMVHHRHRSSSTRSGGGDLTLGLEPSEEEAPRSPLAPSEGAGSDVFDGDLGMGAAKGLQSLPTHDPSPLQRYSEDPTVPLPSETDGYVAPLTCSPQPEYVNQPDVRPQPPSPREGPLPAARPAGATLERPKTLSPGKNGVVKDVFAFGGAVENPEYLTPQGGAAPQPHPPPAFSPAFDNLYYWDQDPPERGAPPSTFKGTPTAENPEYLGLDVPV
Protocol: (§1) The substrate phosphorylation assays use baculovirus expressed, recombinant constructs of the intracellular domains of c-erbB-2 and c-erbB-4 that are constitutively active and EGFr isolated from solubilised A431 cell membranes. The method measures the ability of the isolated enzymes to catalyse the transfer of the γ-phosphate from ATP onto tyrosine residues in a biotinylated synthetic peptide (Biotin-[…]. […] The reaction is stopped by the addition of EDTA (final concentration 0.15 mM) and a sample is transferred to a streptavidin-coated 96-well plate. The plate is washed and level of phosphotyrosine on the peptide is determined using a Europium-labelled antiphosphotyrosine antibody and quantified with a time-resolved fluorescence technique.

[2] = biological target: T2, c-erbB-4 (baculovirus expressed, recombinant intracellular domain) (Homo sapiens, UniProt Q15303); test: Substrate phosphorylation assay, c-erbB-4; format: biochemical
T2 construct: baculovirus expressed, recombinant constructs of the intracellular domains of c-erbB-2 and c-erbB-4; made in house
T2 sequence (Q15303 676-1308 limits assumed): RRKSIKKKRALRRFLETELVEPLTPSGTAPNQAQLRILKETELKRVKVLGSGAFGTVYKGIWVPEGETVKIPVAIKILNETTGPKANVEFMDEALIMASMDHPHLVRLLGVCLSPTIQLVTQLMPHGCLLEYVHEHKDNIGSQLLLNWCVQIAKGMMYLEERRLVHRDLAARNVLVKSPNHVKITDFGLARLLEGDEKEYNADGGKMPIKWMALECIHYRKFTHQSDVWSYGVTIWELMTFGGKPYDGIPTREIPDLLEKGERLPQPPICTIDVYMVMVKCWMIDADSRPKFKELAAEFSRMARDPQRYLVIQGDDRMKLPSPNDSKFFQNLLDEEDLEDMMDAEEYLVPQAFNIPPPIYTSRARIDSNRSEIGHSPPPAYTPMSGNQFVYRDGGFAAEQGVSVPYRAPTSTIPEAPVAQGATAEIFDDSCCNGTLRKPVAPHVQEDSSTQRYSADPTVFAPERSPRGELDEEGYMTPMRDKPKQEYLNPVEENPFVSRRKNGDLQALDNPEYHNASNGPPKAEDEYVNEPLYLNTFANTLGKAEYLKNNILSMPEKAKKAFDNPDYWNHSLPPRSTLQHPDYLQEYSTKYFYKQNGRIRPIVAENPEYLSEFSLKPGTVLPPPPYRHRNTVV
Protocol: as §1

[3] = system: HB4a cell line transfected with ras; test: Cell proliferation assay, HB4a ras; format: cell-based, human; settings: Homo sapiens, HB4a, 96 h, read-out: Cell Proliferation HB4a ras
[4] = biological target: HB4a cell line transformed by over-expression of c-erbB-2 (Homo sapiens, UniProt P04626); test: Cell proliferation assay, HB4a erbB-2; format: cell-based
HB4a cell line transformed by over-expression of c-erbB-2, sequence (P04626 whole entry, stated change not applied): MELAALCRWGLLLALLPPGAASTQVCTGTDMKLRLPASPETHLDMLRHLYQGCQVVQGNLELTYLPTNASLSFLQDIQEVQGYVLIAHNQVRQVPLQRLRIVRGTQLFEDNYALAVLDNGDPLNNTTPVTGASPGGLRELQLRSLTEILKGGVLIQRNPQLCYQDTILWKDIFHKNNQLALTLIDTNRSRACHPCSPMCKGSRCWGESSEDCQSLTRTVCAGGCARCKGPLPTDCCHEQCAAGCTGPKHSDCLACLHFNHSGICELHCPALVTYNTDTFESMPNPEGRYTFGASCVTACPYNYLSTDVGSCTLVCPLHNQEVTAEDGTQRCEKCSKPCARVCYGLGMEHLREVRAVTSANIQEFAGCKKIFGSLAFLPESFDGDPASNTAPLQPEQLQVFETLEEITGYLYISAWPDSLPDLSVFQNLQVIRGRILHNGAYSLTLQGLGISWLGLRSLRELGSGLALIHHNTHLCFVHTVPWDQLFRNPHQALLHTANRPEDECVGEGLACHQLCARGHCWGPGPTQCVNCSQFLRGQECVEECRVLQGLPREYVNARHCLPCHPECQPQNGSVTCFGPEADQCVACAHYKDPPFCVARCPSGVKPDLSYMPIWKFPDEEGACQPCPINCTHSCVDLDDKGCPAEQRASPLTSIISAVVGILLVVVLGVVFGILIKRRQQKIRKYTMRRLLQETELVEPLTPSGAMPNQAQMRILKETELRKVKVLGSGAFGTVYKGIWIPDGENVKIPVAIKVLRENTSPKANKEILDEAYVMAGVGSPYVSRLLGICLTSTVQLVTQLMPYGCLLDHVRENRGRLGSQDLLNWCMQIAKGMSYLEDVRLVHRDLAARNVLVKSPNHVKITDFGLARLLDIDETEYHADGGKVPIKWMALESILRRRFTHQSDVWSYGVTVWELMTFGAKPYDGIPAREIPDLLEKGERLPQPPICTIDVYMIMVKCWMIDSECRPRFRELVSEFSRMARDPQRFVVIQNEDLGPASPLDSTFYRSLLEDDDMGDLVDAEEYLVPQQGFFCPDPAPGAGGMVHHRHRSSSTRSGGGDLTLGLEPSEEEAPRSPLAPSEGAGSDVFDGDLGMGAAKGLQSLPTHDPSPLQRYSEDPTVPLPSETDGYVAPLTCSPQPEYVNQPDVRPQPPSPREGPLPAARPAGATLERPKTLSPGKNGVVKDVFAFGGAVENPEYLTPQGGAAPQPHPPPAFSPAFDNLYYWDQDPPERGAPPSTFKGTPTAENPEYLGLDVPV
Protocol: The cell proliferation assay uses an immortalised human breast epithelial cell line (HB4a) which has been transformed by over-expression of c-erbB-2. Growth of these cells in low serum is dependent upon the c-erbB-2 tyrosine kinase activity. […] Cells are plated at 3000/ well in 96-well plates in 0.1 ml medium and allowed to attach overnight. test compound is added in 0.1 ml medium, with a final concentration of 0.5% DMSO, and the plates incubated for 4 days at 37° C. The cells are then examined microscopically for evidence of morphological detransformation and cell mass is estimated by staining with methylene blue and measuring the absorbance at 620 nm. […] Activity against a range of naturally occurring EGFr or c-erbB-2 over-expressing human tumour cell lines (BT474-breast, HN5-head and neck, N87-gastric and Calu3-lung) is assessed with selected compounds by the same methodology.

[5] = biological target: T3, EGFr isolated from solubilised A431 cell membranes (Homo sapiens, UniProt P00533); test: Substrate phosphorylation assay, EGFr; format: biochemical
T3 construct: EGFr isolated from solubilised A431 cell membranes; endogenous in cells; host or cells: A431 cell membranes (solubilised)
T3 sequence (P00533 25-1210): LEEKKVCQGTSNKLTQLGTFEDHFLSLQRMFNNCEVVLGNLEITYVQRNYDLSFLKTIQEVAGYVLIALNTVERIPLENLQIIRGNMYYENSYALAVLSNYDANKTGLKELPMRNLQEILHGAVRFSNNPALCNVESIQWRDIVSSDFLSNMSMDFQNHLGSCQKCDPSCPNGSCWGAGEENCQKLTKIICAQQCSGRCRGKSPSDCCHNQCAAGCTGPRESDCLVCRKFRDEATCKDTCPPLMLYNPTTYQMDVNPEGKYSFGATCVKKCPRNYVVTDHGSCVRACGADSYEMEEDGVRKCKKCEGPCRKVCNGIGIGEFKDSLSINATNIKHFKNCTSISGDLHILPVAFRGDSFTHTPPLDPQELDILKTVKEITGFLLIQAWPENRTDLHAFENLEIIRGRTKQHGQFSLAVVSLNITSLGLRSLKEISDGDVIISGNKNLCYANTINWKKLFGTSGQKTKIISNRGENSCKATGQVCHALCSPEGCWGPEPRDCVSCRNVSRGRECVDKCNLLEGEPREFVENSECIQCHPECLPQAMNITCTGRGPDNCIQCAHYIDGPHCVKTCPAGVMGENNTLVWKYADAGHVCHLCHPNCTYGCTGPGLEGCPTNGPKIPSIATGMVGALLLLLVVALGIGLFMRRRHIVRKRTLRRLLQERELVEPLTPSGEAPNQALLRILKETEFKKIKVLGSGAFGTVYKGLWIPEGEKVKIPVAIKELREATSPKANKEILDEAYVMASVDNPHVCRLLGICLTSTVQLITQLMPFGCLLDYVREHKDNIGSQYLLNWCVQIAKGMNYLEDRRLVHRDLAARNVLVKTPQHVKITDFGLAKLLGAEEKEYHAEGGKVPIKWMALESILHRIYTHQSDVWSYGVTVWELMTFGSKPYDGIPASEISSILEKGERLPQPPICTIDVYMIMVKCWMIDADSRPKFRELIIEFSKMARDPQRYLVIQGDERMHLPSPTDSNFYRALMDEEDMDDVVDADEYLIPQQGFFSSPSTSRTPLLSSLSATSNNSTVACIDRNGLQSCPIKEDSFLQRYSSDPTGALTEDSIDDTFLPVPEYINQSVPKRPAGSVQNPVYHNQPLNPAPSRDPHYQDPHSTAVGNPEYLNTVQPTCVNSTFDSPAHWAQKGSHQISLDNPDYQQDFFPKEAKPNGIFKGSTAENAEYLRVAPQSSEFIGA
Protocol: as §1

[6] = read-out: Substrate Phosphorylation erbB-2
[7] = 4 days at 37° C., methylene blue staining, general toxicity control
[8] = 4 days at 37° C., methylene blue staining; read-out: Cell Proliferation HB4a erbB-2
[9] = 30 minutes, room temperature, ATP and peptide at Km concentrations

Row | IC50 [1, 6] | IC50 [2] | GI50 [4, 8] | IC50 [5, 9] | IC50 [5] | IC50 [1] | GI50 ([4]; read-out: Cell Proliferation HB4a erbB-2; 4 days at 37° C., methylene blue staining) | SMILES | IC50 [3, 7] | IC50 [3]
1 | 0.04 µM | 2.5 µM |  |  |  |  |  | c1ccc(COc2ccc(Nc3ncnc4ccc(-c5ccco5)cc34)cc2)cc1 [Example 1, (4-Benzyloxy-phenyl)-(6-furan-2-yl-quinazolin-4-yl)-amine] |  | 
2 | 0.029 µM | 8.6 µM | 23 µM |  |  |  |  | c1ccc(COc2ccc(Nc3ncnc4ccc(-c5ccccn5)cc34)cc2)cc1 [Example 3, (4-Benzyloxy-phenyl)-(6-(pyridin-2-yl)-quinazolin-4-yl)-amine] | 16 µM | 
3 | 0.035 µM | 6.4 µM |  |  |  |  |  | c1ccc(COc2ccc(Nc3ncnc4ccc(-c5ncccn5)cc34)cc2)cc1 [Example 4, (4-Benzyloxy-phenyl)-(6-(pyrimidin-2-yl)-quinazolin-4-yl)-amine] | 50 µM | 
4 | 0.15 µM | > 10 µM |  |  |  |  |  | Cn1nncc1-c1ccc2ncnc(Nc3ccc(OCc4ccccc4)cc3)c2c1 [Example 8, (4-Benzyloxy-phenyl)-(6-(3-methyl-1,2,3-triazol-4-yl)-quinazolin-4-yl)-amine] |  | 
5 | 0.024 µM | 0.43 µM | 0.55 µM |  |  |  |  | O=Cc1ccc(-c2ccc3ncnc(Nc4ccc(OCc5ccccc5)cc4)c3c2)o1 [Example 9, 5-(4-(4-Benzyloxy-phenylamino)-quinazolin-6-yl)-furan-2-carbaldehyde] | 5.7 µM | 
6 | 0.003 µM |  | 6.2 µM | 0.14 µM |  |  |  | Cc1nnc(-c2ccc3ncnc(Nc4ccc(Oc5ccccc5)cc4)c3c2)o1 [Example 20, (4-Phenoxy-phenyl)-(6-(5-methyl-1,3,4-oxadiazol-2-yl)quinazolin-4-yl)-amine hydrochloride] | > 50 µM | 
7 | 0.009 µM |  | 2.3 µM | 0.028 µM |  |  |  | Cc1nnc(-c2ccc3ncnc(Nc4ccc5c(cnn5Cc5ccccc5F)c4)c3c2)o1 [Example 21, (1-(2-Fluorobenzyl)-1H-indazol-5-yl)-(6-(5-methyl-1,3,4-oxadiazol-2-yl)-quinazolin-4-yl-amine hydrochloride] | > 50 µM | 
8 | 0.001 µM |  | 31 µM | 0.032 µM |  |  |  | Cc1nnc(-c2ccc3ncnc(Nc4ccc5c(cnn5Cc5ccccn5)c4)c3c2)o1 [Example 23, (1-Pyridin-2-ylmethyl)-1H-indazol-5-yl)-(6-(5-methyl-1,3,4-oxadiazol-2-yl)-quinazolin-4-yl)-amine hydrochloride] | > 50 µM | 
9 |  |  | 1.1 µM |  | 0.009 µM |  |  | Cc1nnc(-c2ccc3ncnc(Nc4ccc5c(cnn5Cc5cc(F)cc(F)c5)c4)c3c2)o1 [Example 31, (1-(3,5-Difluoro-benzyl)-1H-indazol-5-yl)-(6-(5-methyl-1,3,4-oxadiazol-2-yl)-quinazolin-4-yl)-amine hydrochloride] | > 50 µM | 
10 | 0.003 µM | 0.97 µM | > 50 µM |  |  |  |  | c1ccc(COc2ccc(Nc3ncnc4ccc(-c5nnn[nH]5)cc34)cc2)cc1 [Example 40, (4-Benzyloxy-phenyl)-(6-(1H-tetrazol-5-yl)-quinazolin-4-yl)-amine] | > 50 µM | 
11 | 0.007 µM |  | 0.57 µM |  |  |  |  | Cc1nnc(-c2ccc3ncnc(Nc4ccc5c(cnn5Cc5ccccc5)c4)c3c2)[nH]1 [Example 42, (1-Benzyl-1H-indazol-5-yl)-(6-(5-methyl-1,3,4-triazol-2-yl)-quinazolin-4-yl)-amine] | 20 µM | 
12 | 0.49 µM | 5 µM |  |  |  |  |  | Cc1cc(-c2ccc3ncnc(Nc4ccc(OCc5ccccc5)cc4)c3c2)on1 [Example 47, (4-Benzyloxy-phenyl)-(-6-(3-methylisoxazol-5-yl)-quinazolin-4-yl)-amine hydrochloride] |  | 
13 | 0.038 µM | 1.1 µM | 0.08 µM |  |  |  |  | CN(CCS(C)(=O)=O)Cc1ccc(-c2ccc3ncnc(Nc4ccc(OCc5ccccc5)cc4)c3c2)o1 [Example 48, (4-Benzyloxy-phenyl)-(6-(5-(((2-methanesulphonyl-ethyl)-methyl-amino)-methyl)-furan-2-yl)-quinazolin-4-yl)-amine] | 9.5 µM | 
14 |  |  |  |  |  | 0.033 µM | 0.47 µM | CS(=O)(=O)NCCNCc1ccc(-c2ccc3ncnc(Nc4ccc(OCc5ccccc5)cc4)c3c2)o1 [Example 49, N-(2-((5-(4-(4-Benzyloxy-phenylamino)-quinazolin-6-yl)-furan-2-ylmethyl)-amino) -ethyl)-methanesulphonamide dihydrochloride] |  | 3.5 µM
15 | 0.012 µM | 0.1 µM | 0.86 µM |  |  |  |  | NS(=O)(=O)CCNCc1ccc(-c2ccc3ncnc(Nc4ccc(OCc5ccccc5)cc4)c3c2)o1 [Example 50, 2-((5-(4-(4-Benzyloxy-phenylamino)-quinazolin-6-yl)-furan-2-ylmethyl)-amino)-ethanesulphonic acid amide] | 7.1 µM | 
16 | 0.02 µM | 5.8 µM | 38 µM |  |  |  |  | COC(=O)c1ccc(-c2ccc3ncnc(Nc4ccc(OCc5ccccc5)cc4)c3c2)o1 [Example 51, 5-(4-(4-Benzyloxy-phenylamino)-quinazolin-6-yl)-furan-2-carboxylic acid methyl ester] | 21 µM | 
17 |  |  | 1.8 µM | 0.013 µM |  |  |  | CS(=O)(=O)CCNC(=O)c1ccc(-c2ccc3ncnc(Nc4ccc(OCc5ccccc5)cc4)c3c2)o1 [Example 53, 5-[4-(4-Benzyloxy-phenylamino)-quinazolin-6-yl]-furan-2-carboxylic acid (2-methanesulphonyl-ethyl)-amide hydrochloride] | 36 µM | 
18 | 0.024 µM | 0.28 µM | 0.14 µM |  |  |  |  | CNS(=O)(=O)CCNCc1ccc(-c2ccc3ncnc(Nc4ccc(OCc5ccccc5)cc4)c3c2)o1 [Example 54, 2-((5-(4-(4-Benzyloxy-phenylamino)-quinazolin-6-yl)-furan-2-ylmethyl)-amino)-ethanesulphonic acid methylamide] | 7.4 µM | 
19 | 0.01 µM | 1 µM | 2 µM |  |  |  |  | Cc1noc(-c2ccc3ncnc(Nc4ccc5c(cnn5Cc5ccccc5)c4)c3c2)n1 [Example 55, (1-Benzyl-1H-indazol-5-yl)-(6-(3-methyl-1,2,4-oxadiazol-5-yl)-quinazolin-4-yl)-amine hydrochloride] | 20 µM | 
20 | 0.26 µM | > 10 µM | 1.7 µM |  |  |  |  | Cc1nc(-c2ccc3ncnc(Nc4ccc(OCc5ccccc5)cc4)c3c2)no1 [Example 56, (4-Benzyloxy-phenyl)-(6-(5-methyl-1,2,4-oxadiazol-3-yl)-quinazolin-4-yl)-amine] | > 50 µM | 
21 | 0.083 µM |  | 1.2 µM |  |  |  |  | CN(C)CCc1nc(-c2ccc3ncnc(Nc4ccc(OCc5ccccc5)cc4)c3c2)no1 [Example 57, (4-Benzyloxy-phenyl)-(6-(5-(2-dimethylamino-ethyl)-1,2,4-oxadiazol-3-yl)-quinazolin-4-yl)-amine] | 2.7 µM | 
22 | 0.006 µM |  | 8.6 µM |  |  |  |  | CN(C)Cc1nc(-c2ccc3ncnc(Nc4ccc(OCc5ccccc5)cc4)c3c2)no1 [Example 58, (4-Benzyloxy-phenyl)-(6-(5-(dimethylaminomethyl)-1,2,4-oxadiazol-3-yl)-quinazolin-4-yl)-amine] | 28 µM | 
23 |  |  | 0.79 µM | 0.011 µM |  |  |  | CS(=O)(=O)CCNCc1nc(-c2ccc3ncnc(Nc4ccc5c(cnn5Cc5ccccc5)c4)c3c2)no1 [Example 59, (1-Benzyl-1H-indazol-5-yl)-(6-(5-(((2-methanesulphonyl-ethyl)-amino)-methyl)-1,2,4-oxadiazol-3-yl)-quinazolin-4-yl)-amine] | 11 µM | 
24 |  |  | 0.54 µM | 1.9 µM |  |  |  | CS(=O)(=O)Cc1nc(-c2ccc3ncnc(Nc4ccc5c(cnn5Cc5ccccc5)c4)c3c2)no1 [Example 60, (1-Benzyl-1H-indazol-5-yl)-(6-(5-methanesulphonylmethyl-1,2,4-oxadiazol-3-yl)-quinazolin-4-yl)-amine] | 50 µM | 
25 |  |  | 0.5 µM | 0.81 µM |  |  |  | Cc1nc(-c2ccc3ncnc(Nc4ccc5c(cnn5Cc5ccccc5)c4)c3c2)no1 [Example 61] | 3.1 µM | 
26 | 0.13 µM | 9.7 µM | 2.1 µM |  |  |  |  | Cc1nocc1-c1ccc2ncnc(Nc3ccc(OCc4ccccc4)cc3)c2c1 [Example 85, (4-Benzyloxy-phenyl)-(6-(3-methyl-[1,2]oxazol-4-yl)-quinazolin-4-yl)-amine] | 2.3 µM | 
